Four molecules from patent US6217863A, “Rationally designed polysaccharide lyases derived from heparinase I” (Massachusetts Institute of Technology, priority 1999, dated 2001) can be followed below.

This test has as its target T1, heparinase I (heparin lyase I) of Flavobacterium heparinum, native purified (chromatofocused) enzyme, SEQ ID NO: 2 (Pedobacter heparinus, UniProt Q05819).
T1 construct: mature heparinase I from F. heparinum contains two free cysteines and not a disulfide bridge; made in house; host or cells: Flavobacterium heparinum (native enzyme purified from cell extract: hydroxyapatite, QAE-Sephadex, chromatofocusing)
Description: Inactivation of heparinase I activity by sulfhydryl-specific reagents. It is filed as biochemical. Conditions: for inactivation rate constant / inactivation time constant τ: PCMB; for inactivation time constant τ: pseudo first order fit; for time to complete inactivation: PBS; for inactivation rate: 500 mM iodoacetic acid. The method, then: Purification of heparinase I: Lyophilized powdered extracts of F. heparinum were prepared according to the method of Yang et al. (1985). Partially purified heparinase I was prepare by step gradient elution of powdered cell extracts from a hydroxyapatite column followed by reverse adsorption on a QAE-Sephadex column Further purification of the enzyme was accomplished with a chromatofocusing, 1 cm×18 cm column with PBE resin (Pharmacia). A 1.5-2.5 ml aliquot of protein (0.5-1.5 mg) in 0.01 M phosphate (pH 6.8) was applied to the column equilibrated with 0.025 M ethanolamine (pH 9.4 with acetic acid). Elution was carried out with 150 ml of 10% Polybuffer 96 (pH 6.0 with acetic acid). […] Fractions (1.5-2.0 ml) were collected in tubes containing 0.2 ml of 0.5 M phosphate buffer at pH 6.8. Immediately after collection, the fractions were assayed for heparinase I activity. […] The active fractions were pooled, and NaCl was added from a 2.0 M aqueous solution to give a final concentration of 0.1 M. Heparinase I was concentrated and equilibrated with a buffer consisting of 0.01 M NaH2 PO4 and 0.1 M NaCl at pH 6.8 (PBS) with Centricon P-30 microconcentrators (Amicon, Mass.).
Modification with Organomercurials: The reversible, sulfhydryl specific anion, PCMB, was utilized to determine the effects of sulfhydryl modification on heparinase I activity. […] The time course of inactivation in the presence and absence of heparin also was determined.
At =Ao exp(-t/.tau.)+A.infin.
where At is the fractional activity at time t, Ao is the initial factional activity, A.infin. is the residual activity at infinite time, and .tau. is the inactivation time constant in minutes or the reciprocal rate constant. Time constants were obtained by a nonlinear least squares fit of the data to the equation.
The effect of NEM modification on heparinase I activity was examined in an attempt to elucidate structural influences on the cysteine reactivities.
In order to ascertain whether significant levels of NEM bind heparinase I, labeling studies with [^3 H]NEM were undertaken.

Read-outs that look alike come from different tables or passages of the source.

T1 sequence (Q05819 22-384): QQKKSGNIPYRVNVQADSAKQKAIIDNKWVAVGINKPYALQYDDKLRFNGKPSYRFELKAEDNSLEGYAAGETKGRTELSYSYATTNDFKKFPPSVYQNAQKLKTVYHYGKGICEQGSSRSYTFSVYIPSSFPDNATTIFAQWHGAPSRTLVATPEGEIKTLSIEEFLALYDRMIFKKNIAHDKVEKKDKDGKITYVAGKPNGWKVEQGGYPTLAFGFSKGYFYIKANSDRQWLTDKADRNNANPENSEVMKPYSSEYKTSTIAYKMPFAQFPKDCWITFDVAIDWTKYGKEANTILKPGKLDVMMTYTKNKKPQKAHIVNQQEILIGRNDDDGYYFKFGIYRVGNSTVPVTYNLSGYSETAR

In the case of `CCN1C(=O)C=CC1=O` [NEM, N-ethylmaleimide], the inhibition at 1000 µM (1 mM NEM overnight at 4° C., read-out: activity loss) was about 15% and the inhibition at 1000 µM (1 mM [3H]NEM, non-denatured enzyme, 20 h, read-out: loss of activity) was determined as 15%. Also, where the note is “1 mM NEM, pH 7.0, over an 8 h period”, the change in activity result is recorded as “little change in activity”. Further, under “0.75 h, 10 mM NEM, pH 7.0, 4° C., within 45 min, read-out: enzymatic activity lost”, the inhibition at 10000 µM was determined as 15%.

Take `O=C(O)c1cc[c]([Hg][Cl])cc1` [PCMB]: the “reversible loss of enzyme activity” value (PCMB at 2.5-100 μM, 4° C.) amounted to 95±5%. Besides, the inactivation rate constant reads like this: (0.0 mg/ml heparin) 1.2 min⁻¹; (0.5 mg/ml heparin) 0.2 min⁻¹. The “inactivation time constant τ” value came out at 0.8 ± 1 min (absence of heparin) and 5 ± 1 min (presence of 0.5 mg/ml heparin).

As for `NC(=O)CI` [iodoacetamide], the inhibition at 120000 µM (120 mM iodoacetamide, 24 h incubation, PBS pH 7.0, 4° C.) was found to be 15%. In addition, the change in activity result (2, 5, 10 and 120 mM iodoacetamide in PBS, pH 7.0, 4° C., up to 24 h) is recorded as “little change in activity”.

On to `O=C(O)CI` [iodoacetic acid], for which the “time to complete inactivation” value is, setting by setting: (0.1 mM iodoacetic acid, 4° C.) at most 15 h; (1 mM iodoacetic acid, 4° C.) at most 0.25 h. Also, the inactivation rate runs as follows: (no heparin) 3±1×10^-3 h^-1; (presence of 2 mg/ml heparin) 5±2×10^-4 h^-1. Moreover, the inhibition at 2000 µM (10 min, 2 mM iodoacetic acid in PBS, 4° C., within 10 min, read-out: heparinase I inactivated) amounted to 95 ± 5%. The “retention of activity relative to untreated heparinase I” value (iodoacetic acid treated enzyme (heparin protection experiment)) is reported as 15±5%.
